Data as given in patent US8993562B2, “Imidazo[1,2-b]pyridazines, processes, uses, intermediates and compositions” (Ferrer Internacional, S.A., priority 2006, dated 2015).

Tested on: male CD1 mice
Assay: In vivo predictive sedation-hypnosis test (traveled distance)
Details: Mus musculus, ip, 0.5 h, traveled distance over 30 min versus control, read-out: % inhib motor activity; for inhibition in vivo at 0.98 µmol/kg: 0.98 μmol/kg intraperitoneal; for inhibition in vivo at 98 µmol/kg: 98.0 μmol/kg intraperitoneal
Description: b) In Vivo Determination of Predictive Sedative-hypnotic Action
The in vivo effects of these compounds were assessed by a predictive sedation-hypnosis test in mice (D. J. Sanger et al., Eur. J. Pharmacol., 313, 35-42, 1996; and G. Griebel et al., Psychopharmacology, 146, 205-213, 1999).
Groups of 5-8 male CD1 mice, weighing 22-26 g at the time of test, were used. […] Compounds were suspended in 0.25% agar with one drop of Tween in a volume of 10 mL/kg. Control animals were given the vehicle alone. Using a Smart System (Panlab, S. L., Spain) the traveled distance in cm is recorded for each mouse at 5-minutes intervals during a period of 30 minutes after dosing. The inhibition percentage of traveled distance of treated animals versus control animals (the first 5 minutes were discarded) was calculated.

In the case of `CCN(CC)C(=O)Cc1c(-c2ccc(C)cc2)nc2ccc(Cl)nn12` [Example 1, 2-(6-Chloro-2-p-tolyl-imidazo[1,2-b]pyridazin-3-yl)-N,N-diethyl-acetamide], the inhibition in vivo at 0.98 µmol/kg is reported as 27.6% and the inhibition in vivo at 98 µmol/kg is reported as 94.7%.

With `Cc1ccc(-c2nc3ccc(Cl)nn3c2CC(=O)N2CCCCC2)cc1` [Example 4, 2-(6-Chloro-2-p-tolyl-imidazo[1,2-b]pyridazin-3-yl)-1-piperidin-1-yl-ethanone] the inhibition in vivo at 0.98 µmol/kg was 38.4% and the inhibition in vivo at 98 µmol/kg was 94.7%.

In the case of `Cc1ccc(-c2nc3ccc(Cl)nn3c2CC(=O)N2CCOCC2)cc1` [Example 5, 2-(6-Chloro-2-p-tolyl-imidazo[1,2-b]pyridazin-3-yl)-1-morpholin-4-yl-ethanone], the inhibition in vivo at 0.98 µmol/kg is reported as 41.1% and the inhibition in vivo at 98 µmol/kg is reported as 93.7%.

`Cc1ccc(-c2nc3ccc(Cl)nn3c2CC(=O)N2CCCC2)cc1` [Example 6, 2-(6-Chloro-2-p-tolyl-imidazo[1,2-b]pyridazin-3-yl)-1-pyrrolidin-1-yl-ethanone] was tested, and the inhibition in vivo at 0.98 µmol/kg was 51.9% and the inhibition in vivo at 98 µmol/kg was 96.9%.

`CCOc1ccc2nc(-c3ccc(Br)cc3)c(CC(=O)N3CCOCC3)n2n1` [Example 9, 2-[2-(4-Bromo-phenyl)-6-ethoxy-imidazo[1,2-b]pyridazin-3-yl]-1-morpholin-4-yl-ethanone] was tested, and the inhibition in vivo at 0.98 µmol/kg was 19.9% and the inhibition in vivo at 98 µmol/kg was 93.8%.

`CCOc1ccc2nc(-c3ccc(Br)cc3)c(CC(=O)N3CCCCC3)n2n1` [Example 10, 2-[2-(4-Bromo-phenyl)-6-ethoxy-imidazo[1,2-b]pyridazin-3-yl]-1-piperidin-1-yl-ethanone] gave an inhibition in vivo at 0.98 µmol/kg of 29.5% and an inhibition in vivo at 98 µmol/kg of 93.5%.

In the case of `CCCCN(CCCC)C(=O)Cc1c(-c2ccc(Br)cc2)nc2ccc(OCC)nn12` [Example 11, 2-[2-(4-Bromo-phenyl)-6-ethoxy-imidazo[1,2-b]pyridazin-3-yl]-N,N-dibutyl-acetamide], the inhibition in vivo at 0.98 µmol/kg is reported as 15.3% and the inhibition in vivo at 98 µmol/kg is reported as 79.8%.

`CCCN(CCC)C(=O)Cc1c(-c2ccc(Br)cc2)nc2ccc(OCC)nn12` [Example 12, 2-[2-(4-Bromo-phenyl)-6-ethoxy-imidazo[1,2-b]pyridazin-3-yl]-N,N-dipropyl-acetamide] showed an inhibition in vivo at 0.98 µmol/kg of 15.1% and an inhibition in vivo at 98 µmol/kg of 83.4%.

In the case of `CCOc1ccc2nc(-c3ccc(Br)cc3)c(CC(=O)N(CC)CC)n2n1` [Example 13, 2-[2-(4-Bromo-phenyl)-6-ethoxy-imidazo[1,2-b]pyridazin-3-yl]-N,N-diethyl-acetamide], the inhibition in vivo at 0.98 µmol/kg is reported as 15.1% and the inhibition in vivo at 98 µmol/kg is reported as 92.1%.

In the case of `Cc1ccc2nc(-c3ccc(Br)cc3)c(CC(=O)N3CCOCC3)n2n1` [Example 14, 2-[2-(4-Bromo-phenyl)-6-methyl-imidazo[1,2-b]pyridazin-3-yl]-1-morpholin-4-yl-ethanone], the inhibition in vivo at 0.98 µmol/kg is reported as 4.77% and the inhibition in vivo at 98 µmol/kg is reported as 95.6%.

Work on `CCCN(CCC)C(=O)Cc1c(-c2ccc(Br)cc2)nc2ccc(C)nn12` [Example 17, 2-[2-(4-Bromo-phenyl)-6-methyl-imidazo[1,2-b]pyridazin-3-yl]-N,N-dipropyl-acetamide] yielded an inhibition in vivo at 0.98 µmol/kg of 9.91% and an inhibition in vivo at 98 µmol/kg of 93.1%.

In the case of `CCOc1ccc2nc(-c3ccc(Cl)cc3)c(CC(=O)N(CC)CC)n2n1` [Example 20, 2-[2-(4-Chloro-phenyl)-6-ethoxy-imidazo[1,2-b]pyridazin-3-yl]-N,N-diethyl-acetamide], the inhibition in vivo at 98 µmol/kg is reported as 91.5%.

For `CCCCN(CCCC)C(=O)Cc1c(-c2ccc(Cl)cc2)nc2ccc(C)nn12` [Example 22, N,N-Dibutyl-2-[2-(4-chloro-phenyl)-6-methyl-imidazo[1,2-b]pyridazin-3-yl]-acetamide], the inhibition in vivo at 0.98 µmol/kg was 22.2% and the inhibition in vivo at 98 µmol/kg was 88%.

Molecule `CCCN(CCC)C(=O)Cc1c(-c2ccc(Cl)cc2)nc2ccc(OCC)nn12` [Example 23, 2-[2-(4-Chloro-phenyl)-6-ethoxy-imidazo[1,2-b]pyridazin-3-yl]-N,N-dipropyl-acetamide] has an inhibition in vivo at 0.98 µmol/kg of 12.4% and an inhibition in vivo at 98 µmol/kg of 91.7%.

`CCCCN(CCCC)C(=O)Cc1c(-c2ccc(Cl)cc2)nc2ccc(OCC)nn12` [Example 24, N,N-Dibutyl-2-[2-(4-chloro-phenyl)-6-ethoxy-imidazo[1,2-b]pyridazin-3-yl]-acetamide] was tested, and the inhibition in vivo at 0.98 µmol/kg was 3.65% and the inhibition in vivo at 98 µmol/kg was 86.5%.

`CCCCN(CCCC)C(=O)Cc1c(-c2ccc(F)cc2)nc2ccc(C)nn12` [Example 40, N,N-Dibutyl-2-[2-(4-fluoro-phenyl)-6-methyl-imidazo[1,2-b]pyridazin-3-yl]-acetamide] was tested, and the inhibition in vivo at 98 µmol/kg was 91.8%.

Molecule `CCCCN(CCCC)C(=O)Cc1c(-c2ccc(F)cc2)nc2ccc(OC)nn12` [Example 42, N,N-Dibutyl-2-[2-(4-fluoro-phenyl)-6-methoxy-imidazo[1,2-b]pyridazin-3-yl]-acetamide] has an inhibition in vivo at 98 µmol/kg of 91%.

For `CCCCN(CCCC)C(=O)Cc1c(-c2ccc(OC)cc2)nc2ccc(C)nn12` [Example 72, N,N-Dibutyl-2-[2-(4-methoxy-phenyl)-6-methyl-imidazo[1,2-b]pyridazin-3-yl]-acetamide], the inhibition in vivo at 98 µmol/kg was 93.3%.

Molecule `CCCCN(CCCC)C(=O)Cc1c(-c2ccc(OC)cc2)nc2ccc(OC)nn12` [Example 77, N,N-Dibutyl-2-[6-methoxy-2-(4-methoxy-phenyl)-imidazo[1,2-b]pyridazin-3-yl]-acetamide] has an inhibition in vivo at 98 µmol/kg of 89.3%.

In the case of `CCCN(CCOC(C)=O)C(=O)Cc1c(-c2ccc(C)cc2)nc2ccc(C)nn12` [Example 80, Acetic acid 2-{[2-(6-methyl-2-p-tolyl-imidazo[1,2-b]pyridazin-3-yl)-acetyl]-propyl-amino}-ethyl ester], the inhibition in vivo at 98 µmol/kg is reported as 94.4%.

Molecule `Cc1ccc(-c2nc3ccc(C)nn3c2CC(=O)N2CC(C)CC(C)C2)cc1` (stereo not shown) [Example 81, 1-(3,5-Dimethyl-piperidin-1-yl)-2-(6-methyl-2-p-tolyl-imidazo[1,2-b]pyridazin-3-yl)-ethanone] has an inhibition in vivo at 98 µmol/kg of 90.8%.

Molecule `Cc1ccc2nc(-c3ccc(Br)cc3)c(CC(=O)NN)n2n1` [Example 100, [2-(4-Bromo-phenyl)-6-methyl-imidazo[1,2-b]pyridazin-3-yl]-acetic acid hydrazide] has an inhibition in vivo at 98 µmol/kg of 93.7%.

`Cc1ccc2nc(-c3ccc(Cl)cc3)c(CC(=O)NN)n2n1` [Example 102, [2-(4-Chloro-phenyl)-6-methyl-imidazo[1,2-b]pyridazin-3-yl]-acetic acid hydrazide] gave an inhibition in vivo at 98 µmol/kg of 85.5%.
